Experimental data taken from US20200068887A1, “TREATMENT FOR REMOVING ECTOPARASITES FROM FISH” (priority 2016, published 2020).
Where “and” joins values, the source holds several entries; their conditions need not be identical. Identical values can stand only once.

Tests used:
sea lice = experiment: Comparison on isolated sea lice (in vitro bath exposure); conditions: registered approx. 20 h after end of exposure
Experimental: Both pre-adult and adult stages (mobile stages) of both sexes were used, and they were equally distributed among groups. The sea lice were exposed to imidacloprid for 60 minutes, azamethiphos for 60 minutes and deltamethrin for 30 minutes in one litre baths at a range of concentrations (Tables 6, 7 and 8). The sea lice were transferred to clean aerated seawater after treatment. The temperature of the seawater during the experiment was 12° C., but during exposure the temperature raised to approx. 14° C. in regimes exposed for 60 min. (imidacloprid and azamethiphos) and to 13° C. for the regime exposed in 30 minutes (deltamethrin).
The numbers of live and immobilised (including killed) lice in each regime were registered approximately 20 h after end of exposure. Each louse was individually investigated.

salmon louse = experiment: Bath treatment of lice-infected Atlantic salmon, percent lice removed; format: in vivo; conditions: duplicate
Experimental: To determine the concentration- and time-dependence of imidacloprid treatment in vivo, Atlantic salmon (average of 320.9 g) were challenged with imidacloprid in seawater (32.5%0 salinity) at 12° C. The water level in the tank was lowered and aeration was employed during administration of the active. The salmon louse copepodid culture was counted and adjusted to obtain a target level of around 40 copepodids per fish in the challenge tank at each challenge time point.
Salmon lice on the fish were counted using standard methods. Only lice on the fish's outer surface, not including gills and oral/buccal cavities, were investigated.
Numbers of dissociated lice in tank water or attached to the tank walls were recorded. Lice in the tank water were collected and assessed for ability to attach by suction to a smooth plastic surface immediately after treatment and again after 30-60 minutes (to assess possible revival). Live and viable lice were also collected from the mock-treated control groups for reference and held in revival chambers for the same period of time to assess the system.
The test solutions of the active were prepared (added and homogenised with seawater) and administered to a treatment volume of 40 litres.
Three sea lice-infected fish from the holding tank were randomly gathered and carefully steered into a barrel forming an inner compartment (diameter=34.5-40 cm; height=54 cm) that was submerged in the tank and in which the base has been replaced with a plastic mesh screen with 9 mm^2 square holes.
The fish were transferred to the inner compartment within 3 minutes of each test start. The inner compartment was suspended/submerged in the holding tank pending treatment. Treatments and mock treatments were implemented by draining the inner compartment with fish and transferring it to a barrel containing the test solution. Treatments/mock treatments were performed in static water with aeration/oxygenation. Aeration was adjusted to set the oxygen saturation to 70-100%.
To terminate the treatment, the inner compartment with treated fish was lifted to the surface and drained, then fish were transferred directly and without water to a second basin with a lethal overdose of anaesthetic and left until dead. All lice remaining on these fish and lice that fell off in the anaesthetic bath were recorded.
Exposure times with imidacloprid ranged from 3 to 60 minutes, and doses ranged from 20 ppm to 200 ppm.
Negative control groups at 3- and 60 minutes were duplicated. Superscript numbers denote the total number of lice on the 3 fish in each test.
By way of comparison, fish infected with sea lice from the same sources were treated with azamethiphos at 0.1 mg/l and deltamethrin at 0.2 μ/l for 30 minutes, per the recommended dosage regimes. Treatments were carried out under similar conditions as those treated with imidacloprid. A mock-treatment control was also administered. Each treatment condition was administered in duplicate.
Superscript numbers denote the total number of lice on the 3 fish in each test.

[1] = azamethiphos 5 ppm, 60 min exposure
[2] = azamethiphos 10 ppm, 60 min exposure
[3] = azamethiphos 15 ppm, 60 min exposure
[4] = azamethiphos 20 ppm, 60 min exposure
[5] = deltamethrin 5 ppm, 30 min exposure
[6] = deltamethrin 15 ppm, 30 min exposure
[7] = deltamethrin 20 ppm, 30 min exposure
[8] = deltamethrin 30 ppm, 30 min exposure

SMILES: COP(=O)(OC)SCn1c(=O)oc2cc(Cl)cnc21 [azamethiphos]
- % effect (sea lice; [1]): 0%
- Immobilised (sea lice; [1]): 0
- Live (sea lice; [1]): 10
- % effect (sea lice; [2]): 10%
- Immobilised (sea lice; [2]): 1
- Live (sea lice; [2]): 9
- % effect (sea lice; [3]): 0%
- Immobilised (sea lice; [3]): 0
- Live (sea lice; [3]): 10
- % effect (sea lice; [4]): 10% and 20%
- Immobilised (sea lice; [4]): 1 and 2
- Live (sea lice; [4]): 9 and 8
- Live (sea lice; azamethiphos 30 ppm, 60 min exposure): 9 and 6
- % Removal (salmon louse; azamethiphos at 0.1 mg/l for 30 minutes, 52 and 33 lice on 3 fish): 3.0^33% and 3.8^52%

SMILES: CC1(C)[C@H](C(=O)O[C@H](C#N)c2cccc(Oc3ccccc3)c2)[C@@H]1C=C(Br)Br [deltamethrin]
- % effect (sea lice; [5]): 0%
- Immobilised (sea lice; [5]): 0
- Live (sea lice; [5]): 10
- Live (sea lice; deltamethrin 10 ppm, 30 min exposure): 9 and 10
- % effect (sea lice; [6]): 20% and 10%
- Immobilised (sea lice; [6]): 2 and 1
- Live (sea lice; [6]): 8 and 9
- % effect (sea lice; [7]): 20% and 10%
- Immobilised (sea lice; [7]): 2 and 1
- Live (sea lice; [7]): 8 and 9
- Immobilised (sea lice; [8]): 1 and 2
- Live (sea lice; [8]): 10 and 8
- % Removal (salmon louse; deltamethrin at 0.2 μ/l for 30 minutes, 37 lice on 3 fish each): 0^37%
